Assay results taken from paper PMC6704710, “Preclinical evaluation of 3D185, a novel potent inhibitor of FGFR1/2/3 and CSF-1R, in FGFR-dependent and macrophage-dominant cancer models” (Journal of Experimental & Clinical Cancer Research : CR, 2019).

What was measured:
Type in all cases: biochemical
[1] = biological target: T1, AMPKα2(h) (Homo sapiens, UniProt P54646); experiment: Eurofins kinase panel; settings: read-out: Inhibition rate (%)
T1 construct: purchased Eurofins (KinaseProfiler)

[2] = biological target: T2, VEGFR2 (KDR) (Homo sapiens, UniProt P35968); experiment: Kinase inhibition assay (ELISA)
T2 construct: purchased Eurofins (Fremont, United States)

[3] = biological target: T3, GRK2(h) (Homo sapiens, UniProt P25098); experiment: Eurofins kinase panel; settings: read-out: Inhibition rate (%)
T3 construct: purchased Eurofins (KinaseProfiler)
T3 sequence (P25098 1-689): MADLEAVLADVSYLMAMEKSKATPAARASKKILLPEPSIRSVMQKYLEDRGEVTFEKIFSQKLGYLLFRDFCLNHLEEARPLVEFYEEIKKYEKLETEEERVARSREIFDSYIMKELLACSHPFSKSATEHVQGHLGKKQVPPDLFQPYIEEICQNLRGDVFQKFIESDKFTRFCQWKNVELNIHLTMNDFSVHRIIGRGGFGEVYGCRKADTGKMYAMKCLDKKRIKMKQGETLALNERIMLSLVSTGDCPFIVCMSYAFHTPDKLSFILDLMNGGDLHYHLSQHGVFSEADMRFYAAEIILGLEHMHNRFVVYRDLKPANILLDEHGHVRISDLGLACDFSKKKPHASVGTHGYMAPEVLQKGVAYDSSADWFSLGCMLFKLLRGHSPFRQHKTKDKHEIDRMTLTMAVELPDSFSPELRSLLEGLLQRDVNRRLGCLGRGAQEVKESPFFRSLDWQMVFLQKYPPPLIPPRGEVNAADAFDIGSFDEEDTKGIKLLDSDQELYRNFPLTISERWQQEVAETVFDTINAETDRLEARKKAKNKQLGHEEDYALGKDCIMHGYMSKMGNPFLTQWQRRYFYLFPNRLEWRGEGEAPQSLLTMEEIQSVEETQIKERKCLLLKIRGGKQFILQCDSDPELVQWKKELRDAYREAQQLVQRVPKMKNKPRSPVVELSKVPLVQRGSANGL

[4] = biological target: T4, GSK3β(h) (Homo sapiens, UniProt P49841); experiment: Eurofins kinase panel; settings: read-out: Inhibition rate (%)
T4 construct: purchased Eurofins (KinaseProfiler)

[5] = biological target: T5, MSK1(h) (Homo sapiens, UniProt O75582); experiment: Eurofins kinase panel; settings: read-out: Inhibition rate (%)
T5 construct: purchased Eurofins (KinaseProfiler)

[6] = biological target: T6, CDK12/cyclinK(h) (Homo sapiens, UniProt Q9NYV4); experiment: Eurofins kinase panel; settings: read-out: Inhibition rate (%)
T6 construct: purchased Eurofins (KinaseProfiler)

[7] = biological target: T7, FGFR3 (Homo sapiens, UniProt P22607); experiment: Kinase inhibition assay (ELISA); settings: mean ± SD
T7 construct: purchased Eurofins (Fremont, United States)

[8] = biological target: T8, DAPK1(h) (Homo sapiens, UniProt P53355); experiment: Eurofins kinase panel; settings: read-out: Inhibition rate (%)
T8 construct: purchased Eurofins (KinaseProfiler)

[9] = test system: 372 human recombinant kinases; experiment: Eurofins kinase panel, overall selectivity
Method: Active FGFR1–4, VEGFR1, KDR, VEGFR3, PDGFRα and PDGFRβ proteins were purchased from Eurofins (Fremont, United States), and kinase activity was assessed using ELISA, as previously reported. The broader kinase selectivity profile of 3D185 (0.01, 0.1, and 1 μM) was determined by Eurofins by screening the compound against 372 human recombinant kinases. Increasing concentrations of ATP were diluted for the kinase reaction in the ATP competition assay. CSF-1R kinase activity was analyzed using the Z’-LYTE™ Kinase Assay Kit (Thermo Fisher, United States). The assay formats are described in the SelectScreen Kinase Profiling Service Zlyte protocol. IC50 values were calculated by dose-response curve fitting using Prism (Graph Pad).

[10] = biological target: FGFR1(V561M)(h) (Homo sapiens, UniProt P11362, V561M); experiment: Eurofins kinase panel
Chain of FGFR1(V561M)(h) (P11362 22-822 V561M): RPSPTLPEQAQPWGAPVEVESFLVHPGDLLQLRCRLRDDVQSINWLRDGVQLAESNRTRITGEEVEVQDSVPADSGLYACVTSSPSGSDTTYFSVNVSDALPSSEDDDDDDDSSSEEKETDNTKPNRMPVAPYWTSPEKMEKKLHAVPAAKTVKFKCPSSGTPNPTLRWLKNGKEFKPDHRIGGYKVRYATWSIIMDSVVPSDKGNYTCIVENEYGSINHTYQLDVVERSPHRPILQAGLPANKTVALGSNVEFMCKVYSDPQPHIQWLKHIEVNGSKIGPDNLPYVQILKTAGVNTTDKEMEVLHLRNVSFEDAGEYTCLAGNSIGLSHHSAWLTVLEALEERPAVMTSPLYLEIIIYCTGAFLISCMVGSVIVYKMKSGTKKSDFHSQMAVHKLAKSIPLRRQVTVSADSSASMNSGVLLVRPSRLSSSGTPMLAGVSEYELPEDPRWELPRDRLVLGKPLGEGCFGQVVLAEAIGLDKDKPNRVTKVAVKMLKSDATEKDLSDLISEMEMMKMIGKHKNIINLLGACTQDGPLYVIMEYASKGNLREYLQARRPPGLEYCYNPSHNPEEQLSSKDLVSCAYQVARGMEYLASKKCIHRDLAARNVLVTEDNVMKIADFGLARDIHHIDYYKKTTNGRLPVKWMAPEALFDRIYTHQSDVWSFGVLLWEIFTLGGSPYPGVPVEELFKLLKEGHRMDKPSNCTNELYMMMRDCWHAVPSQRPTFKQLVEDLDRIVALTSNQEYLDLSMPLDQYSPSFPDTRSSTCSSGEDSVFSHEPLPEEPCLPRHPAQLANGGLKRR

T5 sequence (O75582 whole entry): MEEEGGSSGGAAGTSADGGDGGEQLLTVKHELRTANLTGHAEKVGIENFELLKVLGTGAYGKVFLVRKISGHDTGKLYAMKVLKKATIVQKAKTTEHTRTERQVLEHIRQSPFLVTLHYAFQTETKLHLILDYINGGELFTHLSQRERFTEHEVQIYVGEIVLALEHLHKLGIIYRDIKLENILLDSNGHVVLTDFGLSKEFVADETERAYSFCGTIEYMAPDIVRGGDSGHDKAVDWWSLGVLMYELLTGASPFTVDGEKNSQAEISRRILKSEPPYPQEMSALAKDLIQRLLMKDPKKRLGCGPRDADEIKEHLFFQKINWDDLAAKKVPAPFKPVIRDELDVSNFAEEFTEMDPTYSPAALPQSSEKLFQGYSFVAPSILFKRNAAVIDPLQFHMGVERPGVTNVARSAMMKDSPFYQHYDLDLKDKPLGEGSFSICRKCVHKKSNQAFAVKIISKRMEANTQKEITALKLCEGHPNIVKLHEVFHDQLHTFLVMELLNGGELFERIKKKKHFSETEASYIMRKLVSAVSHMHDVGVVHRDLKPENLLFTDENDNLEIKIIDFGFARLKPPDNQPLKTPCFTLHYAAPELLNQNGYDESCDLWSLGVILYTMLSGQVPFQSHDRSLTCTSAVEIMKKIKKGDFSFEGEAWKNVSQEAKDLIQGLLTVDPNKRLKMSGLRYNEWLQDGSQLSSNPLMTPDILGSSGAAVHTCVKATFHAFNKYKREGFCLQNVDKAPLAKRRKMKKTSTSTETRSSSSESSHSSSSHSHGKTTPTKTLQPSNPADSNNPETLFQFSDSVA
T1 sequence (P54646 whole entry): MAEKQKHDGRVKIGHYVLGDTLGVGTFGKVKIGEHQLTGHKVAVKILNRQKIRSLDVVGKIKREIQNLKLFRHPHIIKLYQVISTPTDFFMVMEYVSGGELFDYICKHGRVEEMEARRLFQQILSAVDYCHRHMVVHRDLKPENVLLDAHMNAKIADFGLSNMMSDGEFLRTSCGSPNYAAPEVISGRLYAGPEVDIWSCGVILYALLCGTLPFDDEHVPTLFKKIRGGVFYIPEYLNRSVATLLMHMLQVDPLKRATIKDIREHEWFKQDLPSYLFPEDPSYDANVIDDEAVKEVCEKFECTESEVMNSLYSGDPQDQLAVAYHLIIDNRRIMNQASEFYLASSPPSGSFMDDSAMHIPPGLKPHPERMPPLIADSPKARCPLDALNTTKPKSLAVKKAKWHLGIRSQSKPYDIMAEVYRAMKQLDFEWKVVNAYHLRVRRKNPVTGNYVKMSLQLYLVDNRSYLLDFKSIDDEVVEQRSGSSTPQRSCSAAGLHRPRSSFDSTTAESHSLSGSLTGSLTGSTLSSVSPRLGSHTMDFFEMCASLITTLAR
T1 sequence (Q9Y478 whole entry partner): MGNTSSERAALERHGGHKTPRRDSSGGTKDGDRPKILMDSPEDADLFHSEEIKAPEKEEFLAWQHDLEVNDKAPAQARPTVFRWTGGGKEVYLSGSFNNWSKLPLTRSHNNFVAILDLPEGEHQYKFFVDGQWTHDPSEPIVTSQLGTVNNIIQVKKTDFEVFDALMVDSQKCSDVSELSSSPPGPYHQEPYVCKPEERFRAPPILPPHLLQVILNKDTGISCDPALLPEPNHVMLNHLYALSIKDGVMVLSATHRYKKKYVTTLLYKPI
T1 sequence (P54619 whole entry partner): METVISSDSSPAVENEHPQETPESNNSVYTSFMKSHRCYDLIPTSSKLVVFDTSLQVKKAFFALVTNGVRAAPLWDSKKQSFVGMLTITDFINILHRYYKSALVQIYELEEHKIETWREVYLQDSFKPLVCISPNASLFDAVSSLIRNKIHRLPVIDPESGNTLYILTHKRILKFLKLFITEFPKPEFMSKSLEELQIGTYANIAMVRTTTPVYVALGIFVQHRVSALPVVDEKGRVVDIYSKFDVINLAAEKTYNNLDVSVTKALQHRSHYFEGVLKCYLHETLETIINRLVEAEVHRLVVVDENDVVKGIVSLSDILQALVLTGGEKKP
T4 sequence (P49841 whole entry): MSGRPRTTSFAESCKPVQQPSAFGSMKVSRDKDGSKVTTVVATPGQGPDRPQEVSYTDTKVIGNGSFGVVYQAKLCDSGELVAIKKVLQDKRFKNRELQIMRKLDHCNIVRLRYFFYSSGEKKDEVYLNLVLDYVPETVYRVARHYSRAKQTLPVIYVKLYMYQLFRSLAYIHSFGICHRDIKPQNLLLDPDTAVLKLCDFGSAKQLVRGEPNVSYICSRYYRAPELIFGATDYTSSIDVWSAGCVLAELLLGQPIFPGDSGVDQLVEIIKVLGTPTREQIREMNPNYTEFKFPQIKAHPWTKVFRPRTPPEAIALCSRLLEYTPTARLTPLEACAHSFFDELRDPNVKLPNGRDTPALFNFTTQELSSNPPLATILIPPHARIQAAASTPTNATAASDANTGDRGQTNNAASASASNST
T8 sequence (P53355 whole entry): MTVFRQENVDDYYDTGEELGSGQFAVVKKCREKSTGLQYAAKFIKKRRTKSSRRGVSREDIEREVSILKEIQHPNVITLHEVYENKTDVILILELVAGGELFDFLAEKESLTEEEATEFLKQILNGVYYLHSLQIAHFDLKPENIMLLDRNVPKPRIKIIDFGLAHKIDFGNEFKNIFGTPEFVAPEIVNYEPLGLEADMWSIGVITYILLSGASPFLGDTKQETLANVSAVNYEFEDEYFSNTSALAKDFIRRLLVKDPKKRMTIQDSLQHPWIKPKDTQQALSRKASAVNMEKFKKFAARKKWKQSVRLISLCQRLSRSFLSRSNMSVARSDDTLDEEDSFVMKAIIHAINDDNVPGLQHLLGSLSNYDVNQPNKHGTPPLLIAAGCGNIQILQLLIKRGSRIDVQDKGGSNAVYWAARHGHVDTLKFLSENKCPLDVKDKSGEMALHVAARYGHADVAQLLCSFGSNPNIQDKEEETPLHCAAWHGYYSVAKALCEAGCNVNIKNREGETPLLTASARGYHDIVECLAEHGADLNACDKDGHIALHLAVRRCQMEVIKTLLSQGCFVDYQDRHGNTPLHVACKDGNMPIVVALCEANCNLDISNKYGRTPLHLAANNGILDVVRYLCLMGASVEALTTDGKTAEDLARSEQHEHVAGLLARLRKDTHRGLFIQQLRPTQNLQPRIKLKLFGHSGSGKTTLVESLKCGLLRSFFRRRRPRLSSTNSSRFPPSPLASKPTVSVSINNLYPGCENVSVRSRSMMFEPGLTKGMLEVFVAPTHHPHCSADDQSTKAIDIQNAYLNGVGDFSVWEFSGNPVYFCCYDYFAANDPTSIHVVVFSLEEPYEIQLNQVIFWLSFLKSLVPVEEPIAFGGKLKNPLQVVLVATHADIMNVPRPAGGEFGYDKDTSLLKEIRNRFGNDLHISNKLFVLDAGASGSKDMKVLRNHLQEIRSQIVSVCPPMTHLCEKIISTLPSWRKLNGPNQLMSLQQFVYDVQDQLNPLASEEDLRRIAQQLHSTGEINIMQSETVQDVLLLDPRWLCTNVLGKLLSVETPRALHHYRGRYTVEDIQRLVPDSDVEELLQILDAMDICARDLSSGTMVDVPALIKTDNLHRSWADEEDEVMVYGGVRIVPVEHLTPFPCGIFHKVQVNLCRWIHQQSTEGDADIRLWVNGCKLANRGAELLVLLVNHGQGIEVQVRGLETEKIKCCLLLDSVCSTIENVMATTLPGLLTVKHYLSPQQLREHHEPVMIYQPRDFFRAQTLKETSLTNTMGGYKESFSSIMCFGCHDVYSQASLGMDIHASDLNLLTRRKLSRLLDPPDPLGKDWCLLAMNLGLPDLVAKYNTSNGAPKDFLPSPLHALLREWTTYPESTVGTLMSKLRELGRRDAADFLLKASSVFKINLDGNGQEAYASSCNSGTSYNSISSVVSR

Structure (SMILES): COc1cc(OC)c(Cl)c(-c2ccc3c(NC(=O)c4ccc(N5CCNC(C)(C)C5)cc4)n[nH]c3n2)c1Cl [3D185]
- inhibition at 0.01 µM ([1]; 10 nM): -4%
- inhibition at 0.1 µM ([1]; 100 nM): -8%
- inhibition at 1 µM ([1]; 1000 nM): 9%
- IC50 ([2]; mean ± SD): 382 nM
- selectivity for FGFR1 over KDR ([2]; molecular kinase assays): over 760 fold
- inhibition at 0.01 µM ([3]; 10 nM): 5%
- inhibition at 0.1 µM ([3]; 100 nM): 1%
- inhibition at 1 µM ([3]; 1000 nM): -4%
- inhibition at 0.01 µM ([4]; 10 nM): 0%
- inhibition at 0.1 µM ([4]; 100 nM): 5%
- inhibition at 1 µM ([4]; 1000 nM): -5%
- inhibition at 0.01 µM ([5]; 10 nM): 31%
- inhibition at 0.1 µM ([5]; 100 nM): 19%
- inhibition at 1 µM ([5]; 1000 nM): 24%
- inhibition at 0.01 µM ([6]; 10 nM): -6%
- inhibition at 0.1 µM ([6]; 100 nM): 4%
- inhibition at 1 µM ([6]; 1000 nM): 7%
- IC50 [7]: 3.6 nM
- inhibition at 0.01 µM ([8]; 10 nM): 5%
- inhibition at 0.1 µM ([8]; 100 nM): 13%
- inhibition at 1 µM ([8]; 1000 nM): 19%
- selectivity for FGFR1 over other kinases ([9]; 17 kinases): > 20 fold
- selectivity for FGFR1 over other kinases ([9]; 349 kinases): greater than 200 fold
- IC50 ([10]; estimated from 372-kinase panel): < 10 nM
- inhibition at 0.01 µM ([10]; read-out: Inhibition rate (%)): 58%
- inhibition at 0.1 µM ([10]; read-out: Inhibition rate (%)): 94%
- inhibition at 1 µM ([10]; read-out: Inhibition rate (%)): 100%
